Test results from PubChem BioAssay (NCI).
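Protocol summary: plate cells (96-well), add compound at 5 concentrations, incubate 48 h, interpolate endpoints linearly. GI50 is the concentration that inhibits growth by half. The concentration for full growth arrest is given as TGI.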

Legend:
Test in all cases: inhibition of tumour cell growth, NCI panel, 48 h
[1] = test system: 786-0 renal
[2] = test system: A498 renal
[3] = test system: A549 NSCLC
[4] = test system: ACHN renal
[5] = test system: BT-549 breast
[6] = test system: CAKI-1 renal
[7] = test system: CCRF-CEM leukemia
[8] = test system: COLO 205 colon
[9] = test system: DU-145 prostate
[10] = test system: EKVX NSCLC
[11] = test system: HCC-2998 colon
[12] = test system: HCT-116 colon
[13] = test system: HCT-15 colon
[14] = test system: HL-60(TB) leukemia
[15] = test system: HOP-62 NSCLC
[16] = test system: HOP-92 NSCLC
[17] = test system: HS 578T breast
[18] = test system: HT29 colon
[19] = test system: IGROV1 ovarian
[20] = test system: K-562 leukemia
[21] = test system: KM12 colon
[22] = test system: LOX IMVI melanoma
[23] = test system: M14 melanoma
[24] = test system: MALME-3M melanoma
[25] = test system: MCF7 breast
[26] = test system: MDA-MB-231 breast
[27] = test system: MDA-MB-435
[28] = test system: MOLT-4 leukemia
[29] = test system: NCI-H226 lung
[30] = test system: NCI-H23 lung
[31] = test system: NCI-H460 lung
[32] = test system: NCI-H522 lung
[33] = test system: NCI/ADR-RES ovarian
[34] = test system: OVCAR-3 ovarian
[35] = test system: OVCAR-4 ovarian
[36] = test system: OVCAR-5 ovarian
[37] = test system: OVCAR-8 ovarian
[38] = test system: PC-3 prostate
[39] = test system: RPMI-8226 leukemia
[40] = test system: RXF 393 renal
[41] = test system: SF-268 CNS
[42] = test system: SF-295 CNS
[43] = test system: SF-539 CNS
[44] = test system: SK-MEL-2 melanoma
[45] = test system: SK-MEL-28 melanoma
[46] = test system: SK-MEL-5 melanoma
[47] = test system: SK-OV-3 ovarian
[48] = test system: SN12C renal
[49] = test system: SNB-19 CNS
[50] = test system: SNB-75 CNS
[51] = test system: SR leukemia
[52] = test system: SW-620 colon
[53] = test system: T-47D breast
[54] = test system: TK-10 renal
[55] = test system: U251 CNS
[56] = test system: UACC-257 melanoma
[57] = test system: UACC-62 melanoma
[58] = test system: UO-31 renal

In the case of `CCN1C(=O)N(CC)C2C1NN=c1s/c(=C\c3ccccc3F)c(=O)n12` (stereo unspecified), the GI50 [1] is reported as 0.061 µM, the TGI [1] is reported as 52.8 µM and the GI50 [2] is reported as 0.0154 µM. For the same compound, the TGI [2] was 0.064 µM, the GI50 [3] was 0.0419 µM and the TGI [3] was > 100 µM. For the same compound, the GI50 [4] was 0.0522 µM, the TGI [4] was > 100 µM and the GI50 [5] was 0.0358 µM. For the same compound, the TGI [5] was > 93.3 µM, the GI50 [6] was 0.0323 µM and the TGI [6] was > 100 µM. The GI50 [7] was 0.0386 µM, the TGI [7] was > 100 µM and the GI50 [8] was 0.0271 µM. The TGI [8] was 0.0737 µM, the GI50 [9] was 0.0398 µM and the TGI [9] was > 100 µM. For the same compound, the GI50 [10] was 0.0481 µM, the TGI [10] was > 100 µM and the GI50 [11] was 0.0334 µM. The TGI [11] was > 58.8 µM, the GI50 [12] was 0.0333 µM and the TGI [12] was 14.3 µM. The GI50 [13] was 0.0316 µM, the TGI [13] was > 100 µM and the GI50 [14] was 0.0239 µM. For the same compound, the TGI [14] was 0.0607 µM, the GI50 [15] was 0.0545 µM and the TGI [15] was > 100 µM. It also gave a GI50 [16] of 1.11 µM, a TGI [16] of 69 µM and a GI50 [17] of 0.0345 µM. For the same compound, the TGI [17] was > 100 µM, the GI50 [18] was 0.0319 µM and the GI50 [19] was 0.0512 µM. The TGI [19] was > 43.4 µM, the GI50 [20] was 0.0301 µM and the TGI [20] was > 100 µM. For the same compound, the GI50 [21] was 0.0278 µM, the TGI [21] was > 48.9 µM and the GI50 [22] was 0.0411 µM. For the same compound, the TGI [22] was > 100 µM, the GI50 [23] was 0.0311 µM and the TGI [23] was > 100 µM. For the same compound, the GI50 [24] was 15.4 µM, the TGI [24] was > 100 µM and the GI50 [25] was 0.0325 µM. The TGI [25] was > 63.6 µM, the GI50 [26] was 0.0457 µM and the TGI [26] was > 84.6 µM. The GI50 [27] was 0.0148 µM, the TGI [27] was 0.052 µM and the GI50 [28] was 0.0419 µM. For the same compound, the TGI [28] was > 100 µM, the GI50 [29] was 11.2 µM and the TGI [29] was > 100 µM. The GI50 [30] was 0.0641 µM, the TGI [30] was > 100 µM and the GI50 [31] was 0.0355 µM. For the same compound, the TGI [31] was > 40.6 µM, the GI50 [32] was 0.0192 µM and the TGI [32] was 1.3 µM. For the same compound, the GI50 [33] was 0.0296 µM, the TGI [33] was > 63.6 µM and the GI50 [34] was 0.0282 µM. For the same compound, the TGI [34] was 0.0789 µM, the GI50 [35] was 0.0668 µM and the TGI [35] was > 100 µM. The GI50 [36] was 0.0628 µM, the TGI [36] was > 100 µM and the GI50 [37] was 0.0357 µM. For the same compound, the GI50 [38] was 0.04 µM, the TGI [38] was > 100 µM and the GI50 [39] was 0.0415 µM. For the same compound, the TGI [39] was > 37.7 µM, the GI50 [40] was 0.0224 µM and the TGI [40] was 1.36 µM. The GI50 [41] was 0.0679 µM, the TGI [41] was > 67.4 µM and the GI50 [42] was 0.0242 µM. The TGI [42] was > 49.8 µM, the GI50 [43] was 0.0236 µM and the TGI [43] was 0.0696 µM. For the same compound, the GI50 [44] was 0.0489 µM, the TGI [44] was > 38.9 µM and the GI50 [45] was 62.4 µM. For the same compound, the TGI [45] was > 100 µM, the GI50 [46] was 0.0289 µM and the TGI [46] was 0.203 µM. It also gave a GI50 [47] of 0.054 µM, a TGI [47] of 77.5 µM and a GI50 [48] of 0.0522 µM. The TGI [48] was > 100 µM, the GI50 [49] was 0.0489 µM and the TGI [49] was > 100 µM. For the same compound, the GI50 [50] was 0.0133 µM, the TGI [50] was 0.0711 µM and the GI50 [51] was 0.0278 µM. For the same compound, the TGI [51] was > 74.7 µM, the GI50 [52] was 0.0379 µM and the TGI [52] was > 100 µM. For the same compound, the GI50 [53] was 35.7 µM, the TGI [53] was > 100 µM and the GI50 [54] was 1.68 µM. For the same compound, the TGI [54] was > 63.6 µM, the GI50 [55] was 0.0354 µM and the TGI [55] was > 100 µM. For the same compound, the GI50 [56] was 2.11 µM, the TGI [56] was > 100 µM and the GI50 [57] was 0.0505 µM. The TGI [57] was > 80.4 µM, the GI50 [58] was 0.17 µM and the TGI [58] was > 69.4 µM.
For `Nc1ccccc1SC(CC(=O)c1ccccc1)c1ccc([N+](=O)[O-])cc1` (stereo unspecified), the GI50 [1] was 17.2 µM, the TGI [1] was 31 µM and the GI50 [2] was 14.3 µM. It also gave a TGI [2] of 27.7 µM, a GI50 [3] of 16.6 µM and a TGI [3] of 32.6 µM. For the same compound, the GI50 [4] was 11.8 µM, the TGI [4] was 24.2 µM and the GI50 [5] was 13.6 µM. It also gave a TGI [5] of 26.6 µM, a GI50 [6] of 15.2 µM and a TGI [6] of 28.8 µM. The GI50 [7] was 13.7 µM, the TGI [7] was 46.7 µM and the GI50 [8] was 16.7 µM. For the same compound, the TGI [8] was 31.2 µM, the GI50 [9] was 13.9 µM and the TGI [9] was 27.2 µM. For the same compound, the GI50 [11] was 15.8 µM, the TGI [11] was 29.6 µM and the GI50 [12] was 1.67 µM. It also gave a TGI [12] of 3.16 µM, a GI50 [13] of 8.51 µM and a TGI [13] of 22.4 µM. The GI50 [14] was 12.6 µM, the TGI [14] was 35.2 µM and the GI50 [15] was 14.5 µM. For the same compound, the TGI [15] was 28 µM, the GI50 [17] was 18.1 µM and the TGI [17] was 47.6 µM. The GI50 [18] was 4.3 µM, the TGI [18] was 14.6 µM and the GI50 [19] was 5.69 µM. It also gave a TGI [19] of 21.6 µM, a GI50 [20] of 3.91 µM and a TGI [20] of 14.8 µM. The GI50 [21] was 3.86 µM, the TGI [21] was 14.9 µM and the GI50 [22] was 1.91 µM. It also gave a TGI [22] of 4.15 µM, a GI50 [23] of 13.8 µM and a TGI [23] of 27.8 µM. The GI50 [24] was 15.3 µM, the TGI [24] was 30.3 µM and the GI50 [25] was 3.31 µM. The TGI [25] was 16.1 µM, the GI50 [26] was 11.8 µM and the TGI [26] was 24.1 µM. It also gave a GI50 [27] of 14.3 µM, a TGI [27] of 28 µM and a GI50 [28] of 13.5 µM. For the same compound, the TGI [28] was 60.1 µM, the GI50 [29] was 18 µM and the TGI [29] was 36.3 µM. For the same compound, the GI50 [30] was 13.5 µM, the TGI [30] was 27.2 µM and the GI50 [31] was 17.3 µM. The TGI [31] was 36 µM, the GI50 [32] was 12.9 µM and the TGI [32] was 27 µM. For the same compound, the GI50 [33] was 14.5 µM, the TGI [33] was 28.9 µM and the GI50 [34] was 11.4 µM. For the same compound, the TGI [34] was 23.7 µM, the GI50 [35] was 12.6 µM and the TGI [35] was 25.9 µM. It also gave a GI50 [36] of 16.6 µM, a TGI [36] of 30.6 µM and a GI50 [37] of 14.1 µM. For the same compound, the TGI [37] was 27.4 µM, the GI50 [38] was 10.3 µM and the TGI [38] was 22.4 µM. The GI50 [39] was 2.91 µM, the TGI [39] was 9.06 µM and the GI50 [40] was 15.8 µM. The TGI [40] was 29.6 µM, the GI50 [41] was 12.4 µM and the TGI [41] was 25.8 µM. It also gave a GI50 [42] of 16.1 µM, a TGI [42] of 30 µM and a GI50 [43] of 17.2 µM. It also gave a TGI [43] of 31.1 µM, a GI50 [44] of 18 µM and a TGI [44] of 33 µM. The GI50 [45] was 14.4 µM, the TGI [45] was 27.6 µM and the GI50 [46] was 15.6 µM. For the same compound, the TGI [46] was 29.4 µM, the GI50 [47] was 17.3 µM and the TGI [47] was 31 µM. The GI50 [48] was 11.6 µM, the TGI [48] was 23.8 µM and the GI50 [49] was 12.2 µM. The TGI [49] was 24.6 µM, the GI50 [50] was 11.2 µM and the TGI [50] was 23.3 µM. It also gave a GI50 [51] of 2.57 µM, a TGI [51] of 7.38 µM and a GI50 [52] of 2.88 µM. For the same compound, the TGI [52] was 10.9 µM, the GI50 [53] was 12.1 µM and the TGI [53] was 36.3 µM. For the same compound, the GI50 [54] was 18.6 µM, the TGI [54] was 32.7 µM and the GI50 [55] was 4.51 µM. It also gave a TGI [55] of 16.9 µM, a GI50 [56] of 14.5 µM and a TGI [56] of 27.8 µM. It also gave a GI50 [57] of 12.1 µM, a TGI [57] of 24.5 µM and a GI50 [58] of 7.75 µM. The TGI [58] was 21.5 µM.
